# Experimental data reported in patent US6048854A, “2,3-diaminopropionic acid derivative” (Sumitomo Pharmaceuticals Company, Limited, priority 1993, dated 2000).
# Like-named read-outs stand apart in the source and are kept apart here.
# How the values were obtained:
# platelet aggregation [1] = experiment: Platelet aggregation inhibitory activity (ADP-induced, human platelet rich plasma); format: cell-based
# In short: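 Citrated human platelet-rich plasma […] was stirred with test compound for 2 min at 37 °C. Aggregation was then induced with ADP at 3 μg/ml final and monitored by nephelometry. IC50 is the concentration giving 50% inhibition of aggregation.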
# human fibrinogen = target: T1, human fibrinogen (Homo sapiens, UniProt P05106+P08514); experiment: Binding assay of platelet to adhesive protein: fibrinogen (receptor binding inhibition); conditions: Table 4; fixed activated human platelets, 37° C., 60 minutes
# T1 construct: centrifuged at 11000 rpm for two minutes to give human platelet; from tissue
# Procedure: (§1) The blood was taken out from the elbow vein of a normal volunteer, and mixed with 1/10 volume of 3.8% sodium citrate. The blood was centrifuged at 1,000 rpm (150 g) for 10 minutes, and the supernatant is collected as a platelet rich plasma (PRP). The precipitates are centrifuged at 11,000 rpm (6000 g) for two minutes, and the supernatant is collected as a platelet poor plasma (PPP). To PRP is added prostaglandin I2 (PGl2) at a final concentration of 50 ng/ml, and the mixture was centrifuged at 11000 rpm for two minutes to give human platelet. The platelet was activated by washing with 3.8 mM HEPES-buffer (pH 7.4, Tyrode-HEPES buffer) containing 0.14 M sodium chloride, 2.7 mM potassium chloride, 3.7 mM sodium dihydrogen phosphate, 0.98 mM magnesium chloride, 1 mg/ml glucose, 50 ng/ml PGl2 and 0.35% bovine serum albumin (BSA), adding thereto 5 μM epinephrine, and 30 μM ADP (adenosine diphosphate), followed by being allowed to stand at room temperature for five minutes. To the activated platelet was added 0.05% p-formaldehyde, and the mixture was allowed to stand at room temperature for 30 minutes to give the fixed platelet, which was suspended in Tyrode-HEPES buffer to give a platelet suspension of a concentration of 2×10^8 ml^-1.
# (§2) Human fibrinogen from which fibronectin was previously removed by passing through gelatin-cepharose, human fibronectin or human vitronectin was diluted with 0.1 M aqueous sodium hydrogen carbonate solution to a concentration of 5 μg/ml, and the protein solution is put into a 96-well microplate at a volume of 200 μl/well. The microplate was allowed to stand at 4° C. overnight. The plate was washed with phosphate buffered saline (PBS), and subjected to blocking with 3% BSA at 37° C. for one hour. To the plate were added a platelet suspension (final concentration, 10^8 ml^-1) and a test compound of various concentrations (total volume, 200 μl/well), and the plate was incubated at 37° C. for 60 minutes. The plate was treated with 1000-fold diluted enzyme (HRP)-labelled anti-mouse IgG polyclonal antibody at 37° C. for 60 minutes, and thereto was added HRP chromogenic substrate (0.1 M phosphate buffer containing 0.4 mg/ml O-phenylenediamine,0.01% hydrogen peroxide, 0.1 M citric acid, pH 5), and reacted at room temperature for 15 minutes. The reaction was terminated by adding thereto 4.5 M sulfuric acid at a volume of 25 μl/well, and the absorbance at 490 nm was measured.
# human fibronectin = experiment: Binding assay of platelet to adhesive protein: fibronectin (receptor binding inhibition); conditions: Table 4; fixed activated human platelets, 37° C., 60 minutes
# Procedure: as §1, §2
# human vitronectin = experiment: Binding assay of platelet to adhesive protein: vitronectin (receptor binding inhibition); conditions: Table 4; fixed activated human platelets, 37° C., 60 minutes; read-out: receptor binding inhibition (IC50), Bitronectin
# Procedure: as §1, §2
# platelet aggregation [2] = experiment: Platelet aggregation inhibitory activity (ex vivo) after oral administration; format: in vivo; conditions: Cavia porcellus, guinea pig, oral 0.1 mg/kg, ADP 10 μg/ml
# Procedure: A canula for collecting blood was inserted into the left common carotid artery of a guinea pig which was anesthetized with pentobarbital (30 mg/kg, i.p.). The blood (1 ml) was taken with a syringe containing 1/10 volume of 3.8% sodium citrate (Kettin-citrate, manufactured by Kokusai Shiyaku Ltd.), and the platelet aggregation ability thereof was measured (as a value before administration). Then, a test compound was orally administered to the guinea pig at a dose of 0.1 mg/kg in a volume of 5 ml/kg, and the blood was collected periodically likewise at 0.5, 1, 2, 4 and 6 hours after the administration of the test compound, and the platelet aggregation ability thereof was measured.
# The determination of the platelet aggregation ability was carried out by turbidimetry using a Hematracer (Niko Bioscience) as follows. That is, the blood was centrifuged at 4500 rpm at room temperature for 10 seconds, and the supernatant was considered as platelet rich plasma (PRP), and the precipitate was centrifuged at 11000 rpm for two minutes and its supernatant was considered as platelet poor plasma (PPP), and the photo-transmittance of the PRP and the PPP was adjusted to 0%, and 100%, respectively. A cubet containing PRP (200 μl) was inserted to a measurement well, and […] at 1000 rpm at 37° C. for two minutes, and thereto was added a platelet aggregator; ADP (adenosine diphosphate, Sigma Ltd., 20 μl, final concentration; 10 μg/ml), and the maximum aggregation rate was measured. From the maximum aggregation rate before the administration of the test compound (MAR control) and the maximum aggregation rate after the administration of the test compound (MAR sample), the platelet aggregation inhibitory rate of each test compound was estimated according to the following equation.
# Inhibitory rate (%)=(1-(MAR sample/MAR control))×100
# The periodical change in the platelet aggregation inhibitory rate of each test compound at a dose of 0.1 mg/kg of oral administration is shown in Table 5.
# [3] = 0.5 hr, read-out: platelet aggregation inhibitory rate (%), 0.5 hr
# [4] = 1 hr, read-out: platelet aggregation inhibitory rate (%), 1 hr
# [5] = 2 hrs, read-out: platelet aggregation inhibitory rate (%), 2 hrs
# [6] = 4 hrs, read-out: platelet aggregation inhibitory rate (%), 4 hrs
# [7] = 6 hrs, read-out: platelet aggregation inhibitory rate (%), 6 hrs
# [8] = Homo sapiens, Table 2, same manner as Example 17
# [9] = Homo sapiens, Table 3, same manner as Example 17
# T1 sequence (P08514 32-887 limits assumed): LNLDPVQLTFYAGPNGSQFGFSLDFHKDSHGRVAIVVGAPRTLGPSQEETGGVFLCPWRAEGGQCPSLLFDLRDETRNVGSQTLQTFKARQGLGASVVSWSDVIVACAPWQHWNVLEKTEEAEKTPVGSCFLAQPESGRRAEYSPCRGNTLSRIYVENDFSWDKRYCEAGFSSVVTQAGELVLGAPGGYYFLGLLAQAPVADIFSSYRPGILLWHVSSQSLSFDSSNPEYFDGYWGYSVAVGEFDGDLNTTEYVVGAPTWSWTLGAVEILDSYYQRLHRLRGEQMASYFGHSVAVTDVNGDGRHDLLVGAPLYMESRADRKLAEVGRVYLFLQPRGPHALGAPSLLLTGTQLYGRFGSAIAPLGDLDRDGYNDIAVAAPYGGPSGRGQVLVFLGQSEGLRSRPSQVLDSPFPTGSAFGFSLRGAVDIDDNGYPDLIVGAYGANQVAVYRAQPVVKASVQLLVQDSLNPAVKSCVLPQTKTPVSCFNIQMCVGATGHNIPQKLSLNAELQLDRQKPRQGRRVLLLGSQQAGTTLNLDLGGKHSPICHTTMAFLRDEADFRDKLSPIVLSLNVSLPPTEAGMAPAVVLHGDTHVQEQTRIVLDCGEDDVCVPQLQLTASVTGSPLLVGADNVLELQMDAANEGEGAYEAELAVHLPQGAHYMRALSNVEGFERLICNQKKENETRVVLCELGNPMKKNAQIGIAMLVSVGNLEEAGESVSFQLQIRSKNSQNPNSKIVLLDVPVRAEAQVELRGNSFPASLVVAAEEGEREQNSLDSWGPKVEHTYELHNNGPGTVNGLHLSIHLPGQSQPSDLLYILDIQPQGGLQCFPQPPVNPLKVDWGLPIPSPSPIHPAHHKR
# T1 sequence (P08514 891-1039 limits assumed): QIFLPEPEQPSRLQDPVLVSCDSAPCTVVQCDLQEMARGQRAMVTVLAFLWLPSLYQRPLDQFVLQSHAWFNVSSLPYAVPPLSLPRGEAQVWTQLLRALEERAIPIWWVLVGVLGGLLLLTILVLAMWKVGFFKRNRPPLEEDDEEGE
# T1 sequence (P05106 27-788): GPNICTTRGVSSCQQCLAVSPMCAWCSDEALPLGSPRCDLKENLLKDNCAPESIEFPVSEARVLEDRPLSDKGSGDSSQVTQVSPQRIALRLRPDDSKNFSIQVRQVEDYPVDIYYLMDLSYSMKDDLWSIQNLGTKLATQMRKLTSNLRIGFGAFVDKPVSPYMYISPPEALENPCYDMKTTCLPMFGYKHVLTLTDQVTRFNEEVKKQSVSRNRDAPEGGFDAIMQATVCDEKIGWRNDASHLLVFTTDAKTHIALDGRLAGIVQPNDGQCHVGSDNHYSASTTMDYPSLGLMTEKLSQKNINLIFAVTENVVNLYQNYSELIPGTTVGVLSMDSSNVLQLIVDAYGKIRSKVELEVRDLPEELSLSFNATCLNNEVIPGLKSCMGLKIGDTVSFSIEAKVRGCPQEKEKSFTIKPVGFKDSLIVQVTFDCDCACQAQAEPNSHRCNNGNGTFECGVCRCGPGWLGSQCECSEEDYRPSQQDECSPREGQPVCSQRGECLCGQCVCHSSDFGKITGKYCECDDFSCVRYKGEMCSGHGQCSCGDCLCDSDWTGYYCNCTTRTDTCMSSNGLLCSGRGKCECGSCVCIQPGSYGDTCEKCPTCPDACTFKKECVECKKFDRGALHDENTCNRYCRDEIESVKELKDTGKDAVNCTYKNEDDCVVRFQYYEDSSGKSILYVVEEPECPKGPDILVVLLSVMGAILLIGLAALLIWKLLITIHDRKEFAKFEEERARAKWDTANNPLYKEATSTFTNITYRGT
SMILES,"IC50 (platelet aggregation [1]; Table 1, human PRP, ADP 3 μg/ml, 37° C.) [nM]",IC50 (human fibrinogen) [nM],IC50 (human fibronectin) [nM],IC50 (human vitronectin) [nM],inhibition in vivo at 0.1 mg/kg (platelet aggregation [2]; [3]) [%],inhibition in vivo at 0.1 mg/kg (platelet aggregation [2]; [4]) [%],inhibition in vivo at 0.1 mg/kg (platelet aggregation [2]; [5]) [%],inhibition in vivo at 0.1 mg/kg (platelet aggregation [2]; [6]) [%],inhibition in vivo at 0.1 mg/kg (platelet aggregation [2]; [7]) [%],IC50 (platelet aggregation [1]; [8]) [nM],IC50 (platelet aggregation [1]; [9]) [nM]
"O=C(CCC1CCNCC1)NCCC(=O)NC[C@H](NS(=O)(=O)c1ccccc1)C(=O)O [Example 2, (2S)-2-benzenesulfonylamino-3-(3-(3-(4-piperidyl)propanoylamino)propanoylamino)propanoic Acid]",39.6,12,120,75000,87,78,67,32,13,,
"COc1ccc(S(=O)(=O)N[C@@H](CNC(=O)CCNC(=O)c2ccc(C(=N)N)cc2)C(=O)O)cc1 [Example 18, (2S)-3-(3-(4-amidinobenzoylamino)propanoylamino)-2-(4-methoxy)benzenesulfonylaminopropanoic Acid]",,7.3,400,8900,54,100,100,73,66,33,
"Cc1cc(C)c(S(=O)(=O)N[C@@H](CNC(=O)CCNC(=O)c2ccc(C(=N)N)cc2)C(=O)O)c(C)c1 [Example 19, (2S)-3-(3-(4-amidinobenzoylamino)propanoylamino)-2-(2,4,6-trimethyl)benzenesulfonylaminopropanoic Acid]",,5,47,1200,86,93,91,89,91,30,
N=C(N)c1ccc(C(=O)NCCC(=O)NC[C@H](NS(=O)(=O)c2cccc3ccccc23)C(=O)O)cc1 [Example 20],,7.3,79,500,76,91,99,100,100,57,
"N=C(N)c1ccc(C(=O)NCCC(=O)NC[C@H](NS(=O)(=O)c2ccccc2C(F)(F)F)C(=O)O)cc1 [Example 21, (2S)-3-(3-(4-amidinobenzoylamino)propanoylamino)-2-(2-trifluoromethyl)benzenesulfonylaminopropanoic Acid]",,2.2,310,240,96,99,100,100,100,15,
"N=C(N)c1ccc(OCCCC(=O)NC[C@H](NS(=O)(=O)c2ccc(F)cc2)C(=O)O)cc1 [Example 61, (2S)-3-(4-(4-amidinophenoxy)butanoylamino)-2-(4-fluoro)benzenesulfonylaminopropanic Acid]",,1,25,380,45,32,25,48,0,24,
"N=C(N)c1ccc(OCCCC(=O)NC[C@H](NS(=O)(=O)c2cccc3ccccc23)C(=O)O)cc1 [Example 62, (2S)-3-(4-(4-amidinophenoxy)butanoylamino)-2-(1-naphthalene)sulfonylaminopropanoic Acid]",,1.1,4.5,240,63,69,63,56,50,26,
"COc1ccc(S(=O)(=O)N[C@@H](CNC(=O)CCCCOc2ccc(C(=N)N)cc2)C(=O)O)cc1 [Example 63, (2S)-3-(5-(4-amidinophenoxy)pentanoylamino)-2-(4-methoxy)benzenesulfonylaminopropanoic Acid]",,2.2,41,130,57,48,26,3,0,15,
"N=C(N)c1ccc(OCCCCC(=O)NC[C@H](NS(=O)(=O)c2ccccc2)C(=O)O)cc1 [Example 64, (2S)-3-(5-(4-amidinophenoxy)pentanoylamino)-2-benzenesulfonylaminopropanoic Acid]",,24,280,4800,50,0,0,0,0,32,
"N=C(N)c1ccc(N2CCC(CC(=O)NC[C@H](NS(=O)(=O)c3ccccc3)C(=O)O)CC2)cc1 [Example 69, (2S)-3-(2-(1-(4-amidinophenyl)-4-piperidyl)ethanoylamino)-2-benzenesulfonylaminopropanoic Acid]",,9.8,60,970,69,39,22,6,3,29,
"Cc1ccccc1S(=O)(=O)N[C@@H](CNC(=O)CCNC(=O)c1ccc(C(=N)N)cc1)C(=O)O [Example 74, (2S)-3-(3-(4-amidinobenzoylamino)propanoylamino)-2-(2-methyl)benzenesulfonylaminopropanoic Acid]",,22,540,3500,92,100,100,100,100,,14
"Cc1cccc(S(=O)(=O)N[C@@H](CNC(=O)CCNC(=O)c2ccc(C(=N)N)cc2)C(=O)O)c1 [Example 75, (2S)-3-(3-(4-amidinobenzoylamino)propanoylamino)-2-(3-methyl)benzenesulfonylaminopropanoic Acid]",,8.1,110,1600,74,82,100,90,74,,34
